Experiment: Agonist activity at VDR in human HL60 cells assessed as induction of cell differentiation after 96 hrs by NBT reduction assay

| SMILES | EC50 [nM] |
| --- | --- |
| CCn1c(C(=O)N[C@@H](C)C(=O)O)ccc1C(CC)(CC)c1ccc(OCC(O)C(C)(C)C)c(C)c1 (stereo not given in full) | 4.1 |
| CCC(CC)(c1ccc(OCC(O)C(C)(C)C)c(C)c1)c1ccc(C(=O)NCCC(=O)O)n1C (stereo not given) | 1600 |
| CCC(CC)(c1ccc(OCC(O)C(C)(C)C)c(C)c1)c1ccc(C(=O)NCC(=O)O)n1C (stereo not given) | 4950 |
| CCC(CC)(c1ccc(OCC(=O)C(C)(C)C)c(C)c1)c1ccc(C(=O)N[C@@H](CC(=O)O)C(=O)O)n1C | 410 |
| CCC(CC)(c1ccc(OCC(=O)C(C)(C)C)c(C)c1)c1ccc(C(=O)N[C@@H](C)C(=O)O)n1C | 2630 |
| CCn1c(C(=O)N[C@H](CO)CCO)ccc1C(CC)(CC)c1ccc(OCC(O)C(C)(C)C)c(C)c1 (stereo not given in full) | 110 |
| CCn1c(C(=O)N[C@@H](C)CO)ccc1C(CC)(CC)c1ccc(OCC(O)C(C)(C)C)c(C)c1 (stereo not given in full) | 1.1 |
| CCn1c(C(=O)NCCO)ccc1C(CC)(CC)c1ccc(OCC(O)C(C)(C)C)c(C)c1 (stereo not given) | 5640 |
| CCC(CC)(c1ccc(OCC(O)C(C)(C)C)c(C)c1)c1ccc(C(=O)N[C@H](CO)CCO)n1C (stereo not given in full) | 200 |
| CCC(CC)(c1ccc(OCC(O)C(C)(C)C)c(C)c1)c1ccc(C(=O)N[C@@H](C)CO)n1C (stereo not given in full) | 570 |
| CCC(CC)(c1ccc(OCC(O)C(C)(C)C)c(C)c1)c1ccc(C(=O)NCCCO)n1C (stereo not given) | 150 |
| CCn1c(C(=O)NCC(=O)OC)ccc1C(CC)(CC)c1ccc(OCC(=O)C(C)(C)C)c(C)c1 | 1830 |
| CCC(CC)(c1ccc(OCC(=O)C(C)(C)C)c(C)c1)c1ccc(C(=O)NCCC(=O)OC)n1C | 790 |
| CCC(CC)(c1ccc(OCC(=O)C(C)(C)C)c(C)c1)c1ccc(C(=O)NCC(=O)OC)n1C | 23 |
| C=C1/C(=C\C=C2/CCC[C@]3(C)[C@@H]([C@H](C)CC[C@@H](O)C(C)C)CC[C@@H]23)C[C@@H](O)C[C@@H]1O [TACALCITOL] | 7.1 |

Source: BindingDB's records for doi:10.1016/j.ejmech.2013.09.015 (China Pharmaceutical University, 2013)
